Measured values as given in publication PMC8217813, “Bridging Computational Vaccinology and Vaccine Development Through Systematic Identification, Characterization, and Downselection of Conserved and Variable Circumsporozoite Protein CD4 T Cell Epitopes From Diverse Plasmodium falciparum Strains” (Frontiers in Immunology, 2021).
Peptide text beside a SMILES is read from it.

Key:
HLA A*0101 = target: T1, HLA A*0101 (Homo sapiens, UniProt P04439, A114D/A174V/A182V/D101N/D185E/E176A/E190D/L180R/Q94H/R68K/S129P/T187R/V100A/V91M/W191G); test: biochemical; format: binding; details: allele A0101; cell-free competition with fluorescently labeled control peptide, fluorescence polarization at 72 hours; read-out: IC50
T1 construct: Pure Protein, LLC (ran the assay)

[1] = system: CD4 T cells co-cultured with autologous DCs from PBMCs; format: cell-based, human
[2] = DR1 donors N=5, positive = Stimulation Index ≥1.5-fold above baseline, ICCS, 5 µg/mL peptide
[3] = DR3 donors N=6, positive = Stimulation Index ≥1.5-fold above baseline, ICCS, 5 µg/mL peptide
[4] = DR4 donors N=10, positive = Stimulation Index ≥1.5-fold above baseline, ICCS, 5 µg/mL peptide
[5] = DR7 donors N=4, positive = Stimulation Index ≥1.5-fold above baseline, ICCS, 5 µg/mL peptide
[6] = DR8 donors N=4, positive = Stimulation Index ≥1.5-fold above baseline, ICCS, 5 µg/mL peptide
[7] = DR9 donors N=4, positive = Stimulation Index ≥1.5-fold above baseline, ICCS, 5 µg/mL peptide
[8] = DR11 donors N=4, positive = Stimulation Index ≥1.5-fold above baseline, ICCS, 5 µg/mL peptide
[9] = DR13 donors N=7, positive = Stimulation Index ≥1.5-fold above baseline, ICCS, 5 µg/mL peptide
[10] = DR15 donors N=7, positive = Stimulation Index ≥1.5-fold above baseline, ICCS, 5 µg/mL peptide

Compound: CC(C)[C@H](NC(=O)[C@H](CO)NC(=O)[C@H](CO)NC(=O)[C@@H](N)CS)C(=O)N[C@@H](Cc1ccccc1)C(=O)N[C@@H](CC(N)=O)C(=O)N[C@H](C(=O)N[C@H](C(=O)N[C@@H](CC(N)=O)C(=O)O)C(C)C)C(C)C [Cluster 374_3D7] (H-CSSVFNVVN-OH)
- IC50 (HLA A*0101): 82.5 µM

Compound: CC[C@H](C)[C@H](NC(=O)[C@H](CO)NC(=O)[C@H](CO)NC(=O)[C@@H](N)CC(N)=O)C(=O)NCC(=O)N[C@@H](CC(C)C)C(=O)N[C@H](C(=O)N[C@@H](CCSC)C(=O)N[C@H](C(=O)O)C(C)C)[C@@H](C)CC [Cluster 382_3D7] (H-NSSIGLIMV-OH)
- IC50 (HLA A*0101): 215 µM

Compound: DQHIEQYLKTIQNSLSTEWS [ICS4]
- Percentage of donors demonstrating IFN-γ responses, DR1 ([1]; DR1 donors N=5, positive = Stimulation Index ≥1.5-fold above baseline, ICCS after 14-day co-culture, 5 µg/mL peptide): 0%
- Percentage of donors demonstrating IL-2 responses, DR1 [1, 2]: 20%
- Percentage of donors demonstrating IL-4 responses, DR1 [1, 2]: 0%
- Percentage of donors demonstrating IL-10 responses, DR1 [1, 2]: 0%
- Percentage of donors demonstrating TNF-α responses, DR1 [1, 2]: 0%
- Percentage of donors demonstrating IFN-γ responses, DR3 ([1]; DR3 donors N=6, positive = Stimulation Index ≥1.5-fold above baseline, ICCS after 14-day co-culture, 5 µg/mL peptide): 0%
- Percentage of donors demonstrating IL-2 responses, DR3 [1, 3]: 0%
- Percentage of donors demonstrating IL-4 responses, DR3 [1, 3]: 17%
- Percentage of donors demonstrating IL-10 responses, DR3 [1, 3]: 0%
- Percentage of donors demonstrating TNF-α responses, DR3 [1, 3]: 0%
- Percentage of donors demonstrating IFN-γ responses, DR4 ([1]; DR4 donors N=10, positive = Stimulation Index ≥1.5-fold above baseline, ICCS after 14-day co-culture, 5 µg/mL peptide): 30%
- Percentage of donors demonstrating IL-2 responses, DR4 [1, 4]: 20%
- Percentage of donors demonstrating IL-4 responses, DR4 [1, 4]: 0%
- Percentage of donors demonstrating IL-10 responses, DR4 [1, 4]: 10%
- Percentage of donors demonstrating TNF-α responses, DR4 [1, 4]: 30%
- Percentage of donors demonstrating IFN-γ responses, DR7 ([1]; DR7 donors N=4, positive = Stimulation Index ≥1.5-fold above baseline, ICCS after 14-day co-culture, 5 µg/mL peptide): 0%
- Percentage of donors demonstrating IL-2 responses, DR7 [1, 5]: 0%
- Percentage of donors demonstrating IL-4 responses, DR7 [1, 5]: 0%
- Percentage of donors demonstrating IL-10 responses, DR7 [1, 5]: 0%
- Percentage of donors demonstrating TNF-α responses, DR7 [1, 5]: 0%
- Percentage of donors demonstrating IFN-γ responses, DR8 ([1]; DR8 donors N=4, positive = Stimulation Index ≥1.5-fold above baseline, ICCS after 14-day co-culture, 5 µg/mL peptide): 0%
- Percentage of donors demonstrating IL-2 responses, DR8 [1, 6]: 0%
- Percentage of donors demonstrating IL-4 responses, DR8 [1, 6]: 0%
- Percentage of donors demonstrating IL-10 responses, DR8 [1, 6]: 0%
- Percentage of donors demonstrating TNF-α responses, DR8 [1, 6]: 0%
- Percentage of donors demonstrating IFN-γ responses, DR9 ([1]; DR9 donors N=4, positive = Stimulation Index ≥1.5-fold above baseline, ICCS after 14-day co-culture, 5 µg/mL peptide): 0%
- Percentage of donors demonstrating IL-2 responses, DR9 [1, 7]: 0%
- Percentage of donors demonstrating IL-4 responses, DR9 [1, 7]: 0%
- Percentage of donors demonstrating IL-10 responses, DR9 [1, 7]: 0%
- Percentage of donors demonstrating TNF-α responses, DR9 [1, 7]: 0%
- Percentage of donors demonstrating IFN-γ responses, DR11 ([1]; DR11 donors N=4, positive = Stimulation Index ≥1.5-fold above baseline, ICCS after 14-day co-culture, 5 µg/mL peptide): 0%
- Percentage of donors demonstrating IL-2 responses, DR11 [1, 8]: 25%
- Percentage of donors demonstrating IL-4 responses, DR11 [1, 8]: 0%
- Percentage of donors demonstrating IL-10 responses, DR11 [1, 8]: 0%
- Percentage of donors demonstrating TNF-α responses, DR11 [1, 8]: 0%
- Percentage of donors demonstrating IFN-γ responses, DR13 ([1]; DR13 donors N=7, positive = Stimulation Index ≥1.5-fold above baseline, ICCS after 14-day co-culture, 5 µg/mL peptide): 0%
- Percentage of donors demonstrating IL-2 responses, DR13 [1, 9]: 0%
- Percentage of donors demonstrating IL-4 responses, DR13 [1, 9]: 14%
- Percentage of donors demonstrating IL-10 responses, DR13 [1, 9]: 0%
- Percentage of donors demonstrating TNF-α responses, DR13 [1, 9]: 0%
- Percentage of donors demonstrating IFN-γ responses, DR15 ([1]; DR15 donors N=7, positive = Stimulation Index ≥1.5-fold above baseline, ICCS after 14-day co-culture, 5 µg/mL peptide): 29%
- Percentage of donors demonstrating IL-2 responses, DR15 [1, 10]: 14%
- Percentage of donors demonstrating IL-4 responses, DR15 [1, 10]: 0%
- Percentage of donors demonstrating IL-10 responses, DR15 [1, 10]: 0%
- Percentage of donors demonstrating TNF-α responses, DR15 [1, 10]: 29%
- median SI, IFN-γ recall responses ([1]; median stimulation index across donors, response with peptide divided by response with no peptide): 0.74
